Several values for one entry are separate records, joined by “and”; a condition that tells them apart may be missing. Identical values can stand only once.
Key:
PfLysRS = molecular target: T1, PfLysRS (Plasmodium falciparum, UniProt Q8IDJ8); assay: Thermal shift assay; format: binding
T1 construct: PfLysRS (77–583) was constructed in the vector pET20b, with a C-terminal 6×His tag; 6xHis (C); made in house; host or cells: E. coli BL21 (DE3)
Protocol: PfLysRS protein was prepared at 10 μM concentration in a buffer containing 20 mM Tris pH 8.0, 200 mM NaCl, 500 μM L-lysine, and 200 μM Compound. Aliquots (18 µL) were added to a 96-well PCR plate and incubated at ambient temperature for 10 min. SYPRO Orange dye (Sigma) was diluted in the assay buffer containing 20 mM Tris pH 8.0 and 200 mM NaCl to a 40× concentration, and 2 µL of the 40× dye solution was added to the PCR plate to bring the final assay volume to 20 µL. After complete mixing, the final solutions were heated from 25 to 90 °C at a rate of 0.015 °C per sec, and fluorescence signals were monitored by QuantStudio 3 (Applied Biosystems by Thermo Fisher Scientific).

HepG2 cells = assay: Cytotoxicity assay (CCK-8); format: cell-based, human; conditions: HepG2, 72 h
Protocol: (§1) HepG2 cells (National Collection of Authenticated Cell Cultures) were cultured in Minimum Essential Medium (Gibco) supplemented with 10% of fetal bovine serum, 100 U·mL^−1 penicillin, 100 U·mL^−1 streptomycin (Gibco), 2 mM L-Glutamine (Gibco), 1× NEAA (Gibco) and 1 mM Sodium Pyruvate (Gibco). The cells were hemi-depleted each week with fresh medium and maintained at 1 ~ 2 × 10^6 cells/mL in 6-cm dishes at 37 °C and 5% CO2. Tested with MycoBlue Mycoplasma Detector D101 (Vazyme), the cells were free from mycoplasma contamination.
(§2) Cell viability was analyzed by Cell Counting Kit-8 (CCK8, ApexBio) according to the manufacturer’s protocols. Cells were seeded and cultured at a density of 2.5 × 10^3 cells per well in 100 μL medium in 96-well microplates (Corning). Then, the cells were treated with different concentrations of compound (0, 1 μM, 3 μM, 10 μM, 100 μM, 300 μM). […] After treatment for 72 h, 10 μL of CCK-8 reagent was added to each well and then cultured for 4 h. All experiments were performed in pentaplicate. The absorbance was analyzed at 450 nm using a microplate reader (Tecan) using medium without cells as blanks. Data was processed using GraphPad Prism 9.

[1] = Cytotoxicity assay (CCK-8); format: cell-based, human; conditions: human, HepG2 cells; HepG2, 72 h
Protocol: as §1, §2

[2] = +Lysine, sheet Figure 6B, in °C (unit assumed)

T1 sequence (Q8IDJ8 entry or part of it): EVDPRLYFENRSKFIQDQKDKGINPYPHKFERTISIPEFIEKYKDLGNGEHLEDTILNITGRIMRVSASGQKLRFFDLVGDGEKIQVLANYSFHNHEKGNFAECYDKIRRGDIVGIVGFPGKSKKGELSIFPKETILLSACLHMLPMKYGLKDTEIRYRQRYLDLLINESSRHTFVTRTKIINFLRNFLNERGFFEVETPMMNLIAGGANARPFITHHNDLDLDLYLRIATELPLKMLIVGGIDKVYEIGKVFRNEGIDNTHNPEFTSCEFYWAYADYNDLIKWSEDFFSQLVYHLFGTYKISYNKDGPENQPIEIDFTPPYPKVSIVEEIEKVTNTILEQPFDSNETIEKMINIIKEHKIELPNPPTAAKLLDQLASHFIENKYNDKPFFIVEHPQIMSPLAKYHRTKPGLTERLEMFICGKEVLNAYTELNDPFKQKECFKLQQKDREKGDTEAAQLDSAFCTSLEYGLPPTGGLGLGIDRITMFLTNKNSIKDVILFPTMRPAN

| SMILES | Tm of PfLysRS, Average (PfLysRS; +Lysine) | Tm of PfLysRS, single repeat (PfLysRS; +Lysine) | △Tm of PfLysRS (PfLysRS; +Lysine, sheet Figure 6B) | Tm of PfLysRS, Average (PfLysRS; [2]) | Tm of PfLysRS, single repeat (PfLysRS; [2]) | Tm of PfLysRS, Average (PfLysRS; -Lysine) | Tm of PfLysRS, single repeat (PfLysRS; -Lysine) | ΔTm at 200 µM (PfLysRS; in the absence of L-lysine) | ΔTm at 200 µM (PfLysRS; in the presence of L-lysine) | cytotoxicity to HepG2 (HepG2 cells) | CC50 at 72 h [1] |
| --- | --- | --- | --- | --- | --- | --- | --- | --- | --- | --- | --- |
| COc1ccc(OC)c(Nc2ncnc(Nc3ccccc3S(=O)(=O)C(C)C)n2)c1 [Compound 36] | 54.438 °C | 54.731 °C and 54.237 °C and 54.854 °C and 53.929 °C | 10.644 | 55.664 | 55.710 and 55.464 and 56.018 | 53.158 °C | 53.374 °C and 52.819 °C and 53.251 °C and 53.189 °C | 11.7 °C | 11.8 °C | no significant toxicity | – |
| COc1ccccc1Nc1ncnc(Nc2ccccc2S(=O)(=O)C(C)C)n1 [Compound 38] | 52.704 °C | 52.703 °C and 52.673 °C and 52.642 °C and 52.796 °C | – | – | – | 50.586 °C | 50.911 °C and 50.756 °C and 50.045 °C and 50.632 °C | 7.6 °C | ~9 °C | – | 7.7 µM |
